Experimental data as given in US7375130B2, “Antidiabetic compounds comprising benzofuran and benzothiophene derivatives” (Merck Patent Gesellschaft mit beschrankter Haftung, priority 2003, dated 2008).

Columns and labels:
[1] = system: INS1; experiment: Insulin secretion test (SEC INS1) according to Endocrinology, 1992 vol. 130 (1) pp. 167-178; format: cell-based; conditions: Rattus norvegicus, compounds tested at 10^-5 M, read-out: SEC INS1 (insulin-secreting activity)
Procedure: Insulin Secretion Test According to the Method Described in Endocrinology, 1992 vol. 130 (1) pp. 167-178
The compounds according to the invention were tested at 10^−5 M.
The insulin-secreting activities are collated in Table B.

[2] = system: isolated islets of Langerhans; experiment: Insulin secretion in isolated rat islets of Langerhans in static incubation, as a function of the glucose concentration; format: cell-based; conditions: 90 minutes incubation, RIA, relative to glucose alone; for Insulin secretion stimulation factor, Product + G 2.8 mM: glucose 2.8 mM; for Insulin secretion stimulation factor, Product + G 8 mM: glucose 8 mM
Procedure: Study of the Activity on Isolated Rat Islets
Effect of the chemical compounds on insulin secretion as a function of the glucose concentration, in vitro, in isolated islets of Langerhans in static incubation (Table C):
The islets of Langerhans obtained by digestion of exocrine pancreatic tissue with collagenase, and then purified on Ficoll gradient, are incubated for 90 minutes in the presence of two concentrations of glucose, (2.8 mM or 8 mM), in the presence or absence of the chemical compound. The insulin secretion is assayed by RIA in the incubation medium.
The potential of the various chemical compounds to stimulate insulin secretion is estimated by calculating the stimulation factor*.
A compound stimulates the secretion of insulin if this factor is greater than or equal to 130% for a given dose of glucose.
where: • G=secretion of insulin (pmol/min. islet) in the presence of glucose alone • G+product=secretion of insulin (pmol/min. islet) in the presence of the same concentration of glucose and of the test chemical compound.

Structure (SMILES) | activity at 10 µM [1] [%] | further results
CCOC(=O)c1sc2ccccc2c1OCC(=O)c1ccccc1OC [Product 3] | 320 | 
CCOC(=O)c1sc2ccccc2c1OCC(=O)C(C)(C)C [Product 12] | 230 | Insulin secretion stimulation factor, Product + G 2.8 mM ([2]; dose 10^-5 M): 93%; Insulin secretion stimulation factor, Product + G 8 mM ([2]; dose 10^-5 M): 186%; Insulin secretion stimulation factor, Product + G 2.8 mM ([2]; dose 10^-6 M): 90%; Insulin secretion stimulation factor, Product + G 8 mM ([2]; dose 10^-6 M): 189%
CCOC(=O)c1sc2ccccc2c1OCC(=O)c1cccc(OC)c1 [Product 8] | 252 | 
CCOC(=O)c1sc2ccccc2c1OCC(=O)c1ccc2ccccc2c1 [Product 13] | 240 | 
CCOC(=O)c1sc2ccccc2c1OCc1cccc(C#N)c1 [Product 29] | 249 | 
CCOC(=O)c1sc2ccccc2c1OCC(=O)c1ccc(OC)cc1OC [Product 11] | 258 | 
CCOC(=O)c1sc2ccccc2c1OC(C)C(=O)c1ccccc1 (stereo not drawn) [Product 10] | 225 | 
CCOC(=O)c1sc2ccccc2c1OCC(=O)c1ccc(F)cc1 [Product 7] | 257 | 
